Data: patent US20240368135A1 (VERTEX PHARMACEUTICALS INCORPORATED, priority 2021, published 2024)

Target: human NaV 1.8 (Homo sapiens, UniProt Q9Y5Y9)
Experiment: E-VIPR assay detecting and measuring NaV inhibition properties
Type: cell-based
Settings: HEK cells expressing truncated human NaV 1.8; in the presence of human serum (compound numbers followed by *); read-out: IC50 in the E-VIPR Assay, performed in the presence of human serum
Outline: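 Membrane potential was followed by coumarin/oxonol FRET during electrical field stimulation of matrigel-seeded HEK cells carrying truncated human NaV1.8 plus KIR2.1. Dosing used 11 points, 3-fold steps, top 300 nM final, 0.625% DMSO, with or without 25% human serum.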

Chain of human NaV 1.8 (Q9Y5Y9 126-399 limits assumed): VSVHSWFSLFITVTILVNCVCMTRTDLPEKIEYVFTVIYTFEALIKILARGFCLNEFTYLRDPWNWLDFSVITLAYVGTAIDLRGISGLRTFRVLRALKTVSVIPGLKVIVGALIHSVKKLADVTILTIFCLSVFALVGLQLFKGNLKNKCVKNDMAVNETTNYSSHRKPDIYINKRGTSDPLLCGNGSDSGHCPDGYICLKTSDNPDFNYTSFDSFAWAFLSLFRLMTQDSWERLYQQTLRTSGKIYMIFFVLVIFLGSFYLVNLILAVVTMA
Chain of human NaV 1.8 (Q9Y5Y9 660-890 limits assumed): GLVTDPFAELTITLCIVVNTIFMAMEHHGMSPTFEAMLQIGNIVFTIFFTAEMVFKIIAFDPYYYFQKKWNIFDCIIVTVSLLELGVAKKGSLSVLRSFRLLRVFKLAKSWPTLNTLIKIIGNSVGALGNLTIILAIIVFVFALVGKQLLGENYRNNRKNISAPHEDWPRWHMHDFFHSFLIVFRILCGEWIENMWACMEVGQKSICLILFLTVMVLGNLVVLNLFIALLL
Chain of human NaV 1.8 (Q9Y5Y9 1148-1722 limits assumed): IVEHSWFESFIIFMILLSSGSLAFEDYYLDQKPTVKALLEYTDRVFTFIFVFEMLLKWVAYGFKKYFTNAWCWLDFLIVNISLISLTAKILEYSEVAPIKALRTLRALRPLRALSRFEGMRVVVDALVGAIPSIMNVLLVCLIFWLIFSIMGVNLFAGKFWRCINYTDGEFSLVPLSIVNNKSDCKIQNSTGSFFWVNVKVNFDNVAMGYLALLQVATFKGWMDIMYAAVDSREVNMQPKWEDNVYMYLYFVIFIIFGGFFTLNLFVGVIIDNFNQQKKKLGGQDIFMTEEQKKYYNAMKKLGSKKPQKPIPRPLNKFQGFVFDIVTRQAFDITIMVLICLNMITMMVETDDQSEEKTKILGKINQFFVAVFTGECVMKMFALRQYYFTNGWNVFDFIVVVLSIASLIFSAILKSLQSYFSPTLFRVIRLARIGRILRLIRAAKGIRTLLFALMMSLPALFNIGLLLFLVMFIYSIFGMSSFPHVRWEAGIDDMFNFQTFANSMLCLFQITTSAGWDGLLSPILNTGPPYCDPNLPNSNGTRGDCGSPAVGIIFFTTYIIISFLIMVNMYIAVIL

Structure (SMILES)	IC50
COc1c([C@H]2[C@H](C(=O)Nc3ccnc(C(O)CO)c3)OC(C)(C)[C@H]2C)ccc(F)c1F (relative stereo) [Compound 721, rel-(2R,3S,4S)-3-(3,4-difluoro-2-methoxyphenyl)-N-(2-(1,2-dihydroxyethyl)pyridin-4-yl)-4,5,5-trimethyltetrahydrofuran-2-carboxamide]	0.1 to 1 µM
COc1c([C@@H]2C[C@](C)(C(F)(F)F)O[C@H]2C(=O)Nc2ccnc(C(O)CO)c2)ccc(F)c1F (single isomer, unassigned) [Compound 685]	0.01 to 0.1 µM
C[C@@H]1[C@H](c2ccc(F)c(F)c2OC(F)F)[C@@H](C(=O)Nc2ccc(C(N)=O)nc2)O[C@]1(C)C(F)(F)F (single isomer, unassigned) [Compound 93]	≥ 1 µM

Same assay, conditions: HEK cells expressing truncated human NaV 1.8; no human serum; read-out: IC50 in the E-VIPR Assay

Structure (SMILES)	IC50
C[C@H]1[C@@H](c2ccc(F)c(F)c2OC(F)F)[C@H](C(=O)Nc2ccnc(N3CCNCC3=O)c2)O[C@@]1(C)C(F)(F)F [Compound 514, (2R,3S,4S,5R)-3-(2-(difluoromethoxy)-3,4-difluorophenyl)-4,5-dimethyl-N-(2-(2-oxopiperazin-1-yl)pyridin-4-yl)-5-(trifluoromethyl)tetrahydrofuran-2-carboxamide]	0.01 to 0.1 µM
COc1c([C@@H]2[C@H](C)[C@H](C(C)C)O[C@H]2C(=O)Nc2cccnc2)ccc(F)c1F [Compound 720, (2R,3S,4S,5S)-3-(3,4-difluoro-2-methoxyphenyl)-5-isopropyl-4-methyl-N-(pyridin-3-yl)tetrahydrofuran-2-carboxamide]	0.1 to 1 µM
COc1c([C@H]2[C@H](C(=O)Nc3ccc(CC4CCNCC4)nc3)O[C@@](C)(C(F)(F)F)[C@H]2C)ccc(F)c1F [Compound 215, (2R,3S,4S,5R)-3-(3,4-difluoro-2-methoxyphenyl)-4,5-dimethyl-N-(6-(piperidin-4-ylmethyl)pyridin-3-yl)-5-(trifluoromethyl)tetrahydrofuran-2-carboxamide]	0.01 to 0.1 µM
C[C@H]1[C@@H](c2ccc(F)c(F)c2OCC2COC2)[C@H](C(=O)Nc2ccc3cnnn3c2)O[C@@]1(C)C(F)(F)F [Compound 621, (2R,3S,4S,5R)-3-[3,4-difluoro-2-(oxetan-3-ylmethoxy)phenyl]-4,5-dimethyl-N-(triazolo[1,5-a]pyridin-6-yl)-5-(trifluoromethyl)tetrahydrofuran-2-carboxamide]	< 0.01 µM
COc1c([C@H]2[C@H](C(=O)Nc3ncn(C)c3C)O[C@@](C)(C(F)(F)F)[C@H]2C)ccc(F)c1F [Compound 322, (2R,3S,4S,5R)-3-(3,4-difluoro-2-methoxyphenyl)-N-(1,5-dimethyl-1H-imidazol-4-yl)-4,5-dimethyl-5-(trifluoromethyl)-tetrahydrofuran-2-carboxamide]	≥ 1 µM
CCS(=O)(=O)c1cc(NC(=O)[C@H]2O[C@](C)(C(F)(F)F)[C@H](C)[C@@H]2c2ccc(F)c(F)c2OC(F)F)ccn1 (single isomer, unassigned) [Compound 89]	0.1 to 1 µM
COc1c([C@H]2[C@H](C(=O)Nc3ccnc(C4(O)CCOC4)c3)O[C@@](C)(C(F)(F)F)[C@H]2C)ccc(F)c1F (single isomer, unassigned) [Compound 220, rel-(2R*,3S*,4S*,5R*)-3-(3,4-difluoro-2-methoxyphenyl)-N-(2-(3-hydroxy-tetrahydrofuran-3-yl)pyridin-4-yl)-4,5-dimethyl-5-(trifluoromethyl)tetrahydrofuran-2-carboxamide]	< 0.01 µM
COc1c([C@@H]2[C@@H](C(=O)Nc3ccnc(N4CCN(C)CC4=O)c3)O[C@](C)(C(F)(F)F)[C@@H]2C)ccc(F)c1C(F)F (single isomer, unassigned) [Compound 163]	0.1 to 1 µM
COc1c([C@H]2[C@H](C(=O)Nc3cncc(S(=O)(=O)N(C)C)c3)O[C@@](C)(C(F)(F)F)[C@H]2C)ccc(F)c1F (stereo in doubt) [Compound 453, rel-(2R,3S,4S,5R)-3-(3,4-difluoro-2-methoxyphenyl)-N-(5-(N,N-dimethylsulfamoyl)pyridin-3-yl)-4,5-dimethyl-5-(trifluoromethyl)tetrahydrofuran-2-carboxamide]	0.01 to 0.1 µM
COc1c([C@H]2[C@H](C(=O)Nc3ccnc(N(C)CCO)c3)O[C@@](C)(C(F)(F)F)[C@H]2C)ccc(F)c1F [Compound 521, (2R,3S,4S,5R)-3-(3,4-difluoro-2-methoxy-phenyl)-N-[2-[2-hydroxyethyl(methyl)amino]-4-pyridyl]-4,5-dimethyl-5-(trifluoromethyl)tetrahydrofuran-2-carboxamide]	0.01 to 0.1 µM
COc1c([C@H]2[C@H](C(=O)Nc3ccc4nc(CO)cn4c3)O[C@@](C)(C(F)(F)F)[C@H]2C)ccc(F)c1F [Compound 264, (2R,3S,4S,5R)-3-(3,4-difluoro-2-methoxyphenyl)-N-(2-(hydroxymethyl)imidazo[1,2-a]pyridin-6-yl)-4,5-dimethyl-5-(trifluoromethyl)tetrahydrofuran-2-carboxamide]	0.01 to 0.1 µM
C[C@H]1[C@@H](c2ccc(F)c(F)c2OCCO)[C@H](C(=O)Nc2cc(C3CC3)n(C)n2)O[C@@]1(C)C(F)(F)F [Compound 546, (2R,3S,4S,5R)-N-(5-cyclopropyl-1-methyl-1H-pyrazol-3-yl)-3-(3,4-difluoro-2-(2-hydroxyethoxy)phenyl)-4,5-dimethyl-5-(trifluoromethyl)tetrahydrofuran-2-carboxamide]	≥ 1 µM
COc1c([C@H]2[C@H](C(=O)Nc3ccc(S(N)(=O)=O)nc3)O[C@@](C)(C(F)(F)F)[C@H]2C)ccc(F)c1F [Compound 235, (2R,3S,4S,5R)-3-(3,4-difluoro-2-methoxy-phenyl)-4,5-dimethyl-N-(6-sulfamoyl-3-pyridyl)-5-(trifluoromethyl)tetrahydrofuran-2-carboxamide]	0.01 to 0.1 µM
COc1c([C@H]2[C@H](C(=O)NC3CCN(C(C)=O)CC3)O[C@@](C)(C(F)(F)F)[C@H]2C)ccc(F)c1F [Compound 273, (2R,3S,4S,5R)-N-(1-acetylpiperidin-4-yl)-3-(3,4-difluoro-2-methoxyphenyl)-4,5-dimethyl-5-(trifluoromethyl)tetrahydrofuran-2-carboxamide]	≥ 1 µM
CNS(=O)(=O)c1cc(NC(=O)C2OC(C)(C(F)(F)F)C(C)C2c2ccc(F)c(F)c2OC)ccn1 (single isomer, unassigned) [Compound 455, 3-(3,4-difluoro-2-methoxy-phenyl)-4,5-dimethyl-N-[2-(methylsulfamoyl)-4-pyridyl]-5-(trifluoromethyl)tetrahydrofuran-2-carboxamide]	0.1 to 1 µM
COc1c([C@H]2[C@H](C(=O)Nc3ccnc(N(C)C(=O)CN(C)C)c3)O[C@@](C)(C(F)(F)F)[C@H]2C)ccc(F)c1F [Compound 522, (2R,3S,4S,5R)-3-(3,4-difluoro-2-methoxy-phenyl)-N-[2-[[2-(dimethylamino)acetyl]-methyl-amino]-4-pyridyl]-4,5-dimethyl-5-(trifluoromethyl)tetrahydrofuran-2-carboxamide]	< 0.01 µM
CCOc1c(C2C(C(=O)Nc3ccnc(S(C)(=N)=O)c3)OC(C)(C(F)(F)F)C2C)ccc(F)c1F (single isomer, unassigned) [Compound 109, 3-(2-ethoxy-3,4-difluoro-phenyl)-4,5-dimethyl-N-[2-(methylsulfonimidoyl)-4-pyridyl]-5-(trifluoromethyl)tetrahydrofuran-2-carboxamide]	0.1 to 1 µM
CNS(=O)(=O)c1cc(NC(=O)C2OC(C)(C(F)(F)F)C(C)C2c2ccc(F)c(F)c2OC)ccn1 (single isomer, unassigned) [Compound 456, 3-(3,4-difluoro-2-methoxy-phenyl)-4,5-dimethyl-N-[2-(methylsulfamoyl)-4-pyridyl]-5-(trifluoromethyl)tetrahydrofuran-2-carboxamide]	< 0.01 µM
COc1c([C@H]2[C@H](C(=O)Nc3ccnc(N4CCNCC4=O)c3)O[C@@](C)(C(F)(F)F)[C@H]2C)ccc(F)c1F [Compound 411, (2R,3S,4S,5R)-3-(3,4-difluoro-2-methoxyphenyl)-4,5-dimethyl-N-(2-(2-oxopiperazin-1-yl)pyridin-4-yl)-5-(trifluoromethyl)-tetrahydrofuran-2-carboxamide]	< 0.01 µM
COc1c([C@H]2[C@H](C(=O)Nc3ccnc(N4C(=O)[C@H]5C[C@@H]4CN5C)c3)O[C@@](C)(C(F)(F)F)[C@H]2C)ccc(F)c1F [Compound 490, (2R,3S,4S,5R)-3-(3,4-difluoro-2-methoxyphenyl)-4,5-dimethyl-N-(2-((1R,4R)-5-methyl-3-oxo-2,5-diazabicyclo[2.2.1]heptan-2-yl)pyridin-4-yl)-5-(trifluoromethyl)tetrahydrofuran-2-carboxamide]	0.01 to 0.1 µM
COCC(O)c1cc(NC(=O)[C@@H]2O[C@@](C)(C(F)(F)F)[C@@H](C)[C@H]2c2ccc(F)c(F)c2OCCN2CCOCC2)ccn1 (single isomer, unassigned) [Compound 595]	0.01 to 0.1 µM
COc1c([C@H]2[C@H](C(=O)Nc3ccc(N)nc3)O[C@@](C)(C(F)(F)F)[C@H]2C)ccc(F)c1F [Compound 523, (2R,3S,4S,5R)—N-(6-aminopyridin-3-yl)-3-(3,4-difluoro-2-methoxyphenyl)-4,5-dimethyl-5-(trifluoromethyl)tetrahydrofuran-2-carboxamide]	< 0.01 µM
COc1c([C@H]2[C@H](C(=O)Nc3ccc(C(N)=O)nc3)O[C@@](C)(C(F)(F)F)[C@H]2C)ccc(F)c1C(F)F (stereo in doubt) [Compound 168, rel-5-((2R,3S,4S,5R)-3-(3-(difluoromethyl)-4-fluoro-2-methoxyphenyl)-4,5-dimethyl-5-(trifluoromethyl)tetrahydrofuran-2-carboxamido)picolinamide]	< 0.01 µM
COc1c([C@H]2[C@H](C(=O)Nc3ccc(C#N)cn3)O[C@@](C)(C(F)(F)F)[C@H]2C)ccc(F)c1F [Compound 187, (2R,2S,4S,5R)-N-(5-cyanopyridin-2-yl)-3-(3,4-difluoro-2-methoxyphenyl)-4,5-dimethyl-5-(trifluoromethyl)tetrahydrofuran-2-carboxamide]	0.01 to 0.1 µM
